The term IC50 denotes the midpoint of a concentration-inhibition curve.

Here are results for 25 compounds from patent US9382257B2, “Substituted pyrrolo[2,3-b]pyrazines as serine/threonine kinase inhibitors” (Genentech, Inc., priority 2002, dated 2016).

Molecules are shown by their SMILES.

Assay [1] has as its system PMA-stimulated P90RSK(Ser380) phosphorylation in HepG2 cells. Description: Cellular P90RSK(Ser380) Phosphorylation Assay (Example 4). It counts as cell-based. The note with it: Homo sapiens, 1.5 hour compound incubation, PMA 100 ng/mL, normalized to GAPDH, read-out: RSK Inhibition IC50. As to the method:
Cellular P90RSK(Ser380) Phosphorylation Assay
Inhibition of PMA-stimulated P90RSK(Ser380) phosphorylation was determined by the following in vitro cellular mechanistic assay, which comprises incubating cells with a compound for 1.5 hours and quantifying fluorescent pP90RSK(Ser380) signal on fixed cells and normalizing to GAPDH signal.
Materials and Methods: HepG2 cells were obtained from ATCC and grown in DMEM supplemented with 10% fetal bovine serum. Cells were plated in 96-well plates at 35,000 cells/well and allowed to attach overnight at 37° C./5% CO2. Diluted compounds were then added at a final concentration of 0.5% DMSO. After 1.5 hour compound incubation, cells were stimulated with the addition of PMA (phorbol 12-myristate 13-acetate) at a final concentration of 100 ng/mL; the PMA stimulation was a 30-minute incubation at 37° C./5% CO2. After the 30-minute PMA stimulation, cells were washed with PBS and fixed in 3.7% formaldehyde in PBS at room temperature for 15-20 minutes. This was followed by another wash in PBS and then permeabilization in 100% MeOH at room temperature for 10-15 minutes. Following the permeabilization incubation, cells were washed in PBS/0.05% Tween-20, followed by a block in Odyssey blocking buffer (LI-COR Biosciences) for at least 1 hour. Antibodies to phosphorylated P90RSK(Ser380) (Cell Signaling #9335, rabbit monoclonal) and GAPDH (Fitzgerald 10R-G109a, mouse monoclonal) were added to the cells and incubated overnight at 4° C. pP90RSK(Ser380) antibody was used at a 1:250 dilution; GAPDH was used at a 1:10,000 dilution. After washing with PBS/0.05% Tween-20, the cells were incubated with fluorescently-labeled secondary antibodies (Anti-rabbit-Alexa Flour680, Invitrogen Cat#A21109; Anti-mouse-IRDye800CW, Rockland Inc. Cat#610-131-121) for 1 hour. Both secondary antibodies were used at a 1:1000 dilution. Cells were then washed and analyzed for fluorescence at both wavelengths using the Odyssey Infrared Imaging System (LI-COR Biosciences). Phosphorylated P90RSK(Ser380) signal was normalized to GAPDH signal. Representative date is in TABLE 2 (infra).

In assay [2] the target is T1, human ERK-2 (Mitogen Activated Kinase 1) (Homo sapiens, UniProt P28482).
T1 construct: n-terminal 6-His fusion protein in E. coli and corresponding to aa 8-360; 6-His (N); made in house; host or cells: E. coli
T1 sequence (P28482 8-360): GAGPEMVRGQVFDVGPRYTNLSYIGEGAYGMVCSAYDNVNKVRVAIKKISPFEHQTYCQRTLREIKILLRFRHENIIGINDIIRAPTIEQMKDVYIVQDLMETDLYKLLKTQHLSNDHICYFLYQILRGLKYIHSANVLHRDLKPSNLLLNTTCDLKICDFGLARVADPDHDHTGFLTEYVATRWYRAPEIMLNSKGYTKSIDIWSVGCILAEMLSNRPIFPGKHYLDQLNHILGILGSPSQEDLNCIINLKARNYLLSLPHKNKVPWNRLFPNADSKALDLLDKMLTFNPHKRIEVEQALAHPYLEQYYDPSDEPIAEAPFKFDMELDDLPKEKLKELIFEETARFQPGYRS
Description: ERK-2 Enzymatic Assay (Example 2). It counts as biochemical. The note with it: Omnia peptide S/T17, 25 μM ATP, read-out: ERK Inhibition IC50. How it is done: Compounds were tested in an enzymatic assay using human ERK-2 (Mitogen Activated Kinase 1), recombinantly expressed as an n-terminal 6-His fusion protein in E. coli and corresponding to aa 8-360. The substrate used was the fluorescent Omnia peptide S/T17 (Invitrogen of Carlsbad, Calif.; Cat. KNZ1171C). Test compounds were diluted in DMSO in 3-fold serial dilutions at 100× final concentrations. […] The assay was run at ambient temperature in a white 384-well polypropylene plate (Nunc, Inc of Naperville, Ill.; Cat. 267462) collecting data every 50 seconds for approximately 30 minutes on an Envision plate reader (PerkinElmer, Inc. of Waltham, Mass.); Excitation 340 nm/Emission 495 nm. The data collected from each well was fit to a straight line and the resulting rates were used to calculate percent of control. Percent of control was plotted against compound concentration and IC50 values were determined using a four-parameter fit. Representative date is in TABLE 2 (infra).

Regarding `O=C(NCc1cncc(-c2c[nH]c3ncc(-c4cn[nH]c4)nc23)c1)c1ccc(F)cc1` [II-3, 4-fluoro-N-{5-[2-(1H-pyrazol-4-yl)-5H-pyrrolo[2,3-b]pyrazin-7-yl]-pyridin-3-ylmethyl}-benzamide], in assay [1], the IC50 is 1600 nM. Regarding `Cc1nc(C(=O)NCc2cncc(-c3c[nH]c4ncc(-c5cn[nH]c5)nc34)c2)c(C)o1` [II-5, 2,5-dimethyl-oxazole-4-carboxylic acid {5-[2-(1H-pyrazol-4-yl)-5H-pyrrolo[2,3-b]pyrazin-7-yl]-pyridin-3-ylmethyl}-amide], the IC50 in assay [2] is 218 nM; in assay [1] it was at least 50000 nM. Consider `Cc1[nH]ncc1-c1cnc2[nH]cc(-c3ccc(OCCN4CCOCC4)nc3)c2n1` [II-2, 2-(5-methyl-1H-pyrazol-4-yl)-7-[6-(2-morpholin-4-yl-ethoxy)-pyridin-3-yl]-5H-pyrrolo[2,3-b]pyrazine], for which the IC50 in assay [2] turned out to be 30.1 nM; in assay [1] it was 5700 nM.

For the compound `Cc1[nH]ncc1-c1cnc2[nH]cc(-c3cnn(Cc4ccccc4C#N)c3)c2n1` [I-4, 2-{4-[2-(5-methyl-1H-pyrazol-4-yl)-5H-pyrrolo[2,3-b]pyrazin-7-yl]-pyrazol-1-ylmethyl}-benzonitrile], the IC50 in assay [2] worked out at 1.3 nM; in assay [1], 202 nM. `Cc1[nH]ncc1-c1cnc2[nH]cc(-c3cnn(Cc4ccccc4[N+](=O)[O-])c3)c2n1` [I-5, 2-(5-methyl-1H-pyrazol-4-yl)-7-[1-(2-nitro-benzyl)-1H-pyrazol-4-yl]-5H-pyrrolo[2,3-b]pyrazine]: the results for the IC50 in assay [2] and in assay [1] were 1.5 nM and 97.2 nM, respectively. As to `Cc1n[nH]cc1-c1cnc2[nH]cc(-c3cnn(C(C)(C)c4ccccc4)c3)c2n1` [I-17, 7-[1-(1-methyl-1-phenyl-ethyl)-1H-pyrazol-4-yl]-2-(3-methyl-1H-pyrazol-4-yl)-5H-pyrrolo[2,3-b]pyrazine], the IC50 in assay [2] turned out to be 36 nM; in assay [1] it was 2300 nM. With `Cc1cc(C(=O)NCc2cncc(-c3c[nH]c4ncc(-c5cn[nH]c5)nc34)c2)no1` [II-4], the IC50 in assay [2] is 198 nM; in assay [1], 3700 nM.

For `Cc1[nH]ncc1-c1cnc2[nH]cc(-c3ccc(NCc4ccccc4)nc3)c2n1` [II-7, benzyl-{5-[2-(5-methyl-1H-pyrazol-4-yl)-5H-pyrrolo[2,3-b]pyrazin-7-yl]-pyridin-2-yl}-amine], the IC50 in assay [2] amounted to 29.9 nM; in assay [1], 5700 nM. In the same order, the values of `Cc1[nH]ncc1-c1cnc2[nH]cc(-c3ccc(OCC4CC4)nc3)c2n1` [II-8, 7-(6-cyclopropylmethoxy-pyridin-3-yl)-2-(5-methyl-1H-pyrazol-4-yl)-5H-pyrrolo[2,3-b]pyrazine] are 46.7 nM and 5900 nM. Take `Cn1nccc1C(=O)NCc1cncc(-c2c[nH]c3ncc(-c4cn[nH]c4)nc23)c1` [II-9, 2-methyl-2H-pyrazole-3-carboxylic acid {5-[2-(1H-pyrazol-4-yl)-5H-pyrrolo[2,3-b]pyrazin-7-yl]-pyridin-3-ylmethyl}-amide]: the values for the IC50 in assay [2] and in assay [1] were 144 nM and at least 50000 nM, respectively. Regarding `COc1ccc(Cn2cc(-c3c[nH]c4ncc(-c5cn[nH]c5C)nc34)cn2)cc1F` [I-7, 7-[1-(3-fluoro-4-methoxy-benzyl)-1H-pyrazol-4-yl]-2-(5-methyl-1H-pyrazol-4-yl)-5H-pyrrolo[2,3-b]pyrazine], the IC50 in assay [2] was determined as 1.89 nM; in assay [1] it was 340 nM. The like results for `Fc1cccc(Cn2cc(-c3c[nH]c4ncc(-c5ccncc5)nc34)cn2)c1` [I-11, 7-[1-(3-fluoro-benzyl)-1H-pyrazol-4-yl]-2-pyridin-4-yl-5H-pyrrolo[2,3-b]pyrazine] were, in that order, 2.77 nM and 501 nM. As to `Cc1[nH]ncc1-c1cnc2[nH]cc(-c3cnn(Cc4cc(F)ccc4C#N)c3)c2n1` [I-27, 4-fluoro-2-{4-[2-(5-methyl-1H-pyrazol-4-yl)-5H-pyrrolo[2,3-b]pyrazin-7-yl]-pyrazol-1-ylmethyl}-benzonitrile], the IC50 in assay [2] was determined as 24.8 nM; in assay [1] it was 2000 nM. As to `Cc1n[nH]c(C)c1-c1cnc2[nH]cc(-c3cnn(Cc4cccc(F)c4)c3)c2n1` [I-10, 2-(3,5-dimethyl-1H-pyrazol-4-yl)-7-[1-(3-fluoro-benzyl)-1H-pyrazol-4-yl]-5H-pyrrolo[2,3-b]pyrazine], the IC50 in assay [2] was found to be 2.7 nM; in assay [1] it was 387 nM.

Consider `Cc1[nH]ncc1-c1cnc2[nH]cc(-c3cnn(Cc4ccc(F)cc4F)c3)c2n1` [I-1, 7-[1-(2,4-difluoro-benzyl)-1H-pyrazol-4-yl]-2-(5-methyl-1H-pyrazol-4-yl)-5H-pyrrolo[2,3-b]pyrazine], for which the IC50 in assay [2] was 1.23 nM; in assay [1] it was 242 nM. For `Cc1[nH]ncc1-c1cnc2[nH]cc(-c3cnn(Cc4c(F)cccc4Cl)c3)c2n1` [I-6, 7-[1-(2-chloro-6-fluoro-benzyl)-1H-pyrazol-4-yl]-2-(5-methyl-1H-pyrazol-4-yl)-5H-pyrrolo[2,3-b]pyrazine], the values for the IC50 in assay [2] and in assay [1] were 1.84 nM and 214 nM, respectively. In the same order, the values of `Cc1[nH]ncc1-c1cnc2[nH]cc(-c3cnn(Cc4cccc5cccnc45)c3)c2n1` [I-15, 8-{4-[2-(5-methyl-1H-pyrazol-4-yl)-5H-pyrrolo[2,3-b]pyrazin-7-yl]-pyrazol-1-ylmethyl}-quinoline] are 14 nM and 651 nM. Regarding `c1ccc(Cn2cc(-c3c[nH]c4ncc(-c5ccncc5)nc34)cn2)cc1` [I-21, 7-(1-benzyl-1H-pyrazol-4-yl)-2-(pyridin-4-yl)-5H-pyrrolo[2,3-b]pyrazine], the figures for the IC50 in assay [2] and in assay [1] were 6.9 nM and 1300 nM, respectively. Take `Cc1[nH]ncc1-c1cnc2[nH]cc(-c3cnn(Cc4ccccc4OC(F)F)c3)c2n1` [I-8, 7-[1-(2-difluoromethoxy-benzyl)-1H-pyrazol-4-yl]-2-(5-methyl-1H-pyrazol-4-yl)-5H-pyrrolo[2,3-b]pyrazine]: the IC50 in assay [2] turned out to be 2.5 nM; in assay [1] it was 191 nM. Consider `Fc1cccc(Cn2cc(-c3c[nH]c4ncc(-c5cn[nH]c5)nc34)cn2)c1` [I-3, 7-[1-(3-fluoro-benzyl)-1H-pyrazol-4-yl]-2-(1H-pyrazol-4-yl)-5H-pyrrolo[2,3-b]pyrazine], for which the IC50 in assay [2] was 2.75 nM; in assay [1], 403 nM.

As for `Cc1[nH]ncc1-c1cnc2[nH]cc(-c3cnn(Cc4ccc(F)c(Cl)c4)c3)c2n1` [I-2, 7-[1-(3-chloro-4-fluoro-benzyl)-1H-pyrazol-4-yl]-2-(5-methyl-1H-pyrazol-4-yl)-5H-pyrrolo[2,3-b]pyrazine], the IC50 in assay [2] was 2.36 nM; in assay [1], 276 nM. Turning to `Cc1[nH]ncc1-c1cnc2[nH]cc(-c3cnn(C(C)c4ccccc4Cl)c3)c2n1` (stereo not shown) [I-25, 7-{1-[1-(2-chloro-phenyl)-ethyl]-1H-pyrazol-4-yl}-2-(5-methyl-1H-pyrazol-4-yl)-5H-pyrrolo[2,3-b]pyrazine], the IC50 in assay [2] worked out at 2.2 nM; in assay [1], 200 nM.

On to `Cc1[nH]ncc1-c1cnc2[nH]cc(-c3cnn([C@@H](C)c4ccccc4Cl)c3)c2n1` [I-9, 7-{1-[(S)-1-(2-chloro-phenyl)-ethyl]-1H-pyrazol-4-yl}-2-(5-methyl-1H-pyrazol-4-yl)-5H-pyrrolo[2,3-b]pyrazine], for which the IC50 was 2.8 nM in assay [2] and 299 nM in assay [1]. `Cc1n[nH]cc1-c1cnc2[nH]cc(-c3cnn(CCc4ccc(C(F)(F)F)cc4)c3)c2n1` [I-18, 2-(3-methyl-1H-pyrazol-4-yl)-7-{1-[2-(4-trifluoromethyl-phenyl)-ethyl]-1H-pyrazol-4-yl}-5H-pyrrolo[2,3-b]pyrazine]: the IC50 in assay [2] was 44.4 nM; in assay [1] it was at least 50000 nM. In the case of `COc1cccc(F)c1Cn1cc(-c2c[nH]c3ncc(-c4cn[nH]c4C)nc23)cn1` [I-26], the results for the IC50 in assay [2] and in assay [1] were 3.4 nM and 518 nM, respectively.
